Assay results: US20230139171A1 (SITA Information Networking Computing UK Limited, priority 2019, published 2023)

Columns and labels:
Type in all cases: cell-based
[1] = biological target: T1, human TLR7 (Homo sapiens, UniProt Q9NYK1); experiment: TLR7 inhibition reporter assay (HEK-Blue cells, SEAP reporter, gardiquimod stimulation); conditions: HEK-Blue cells overexpressing human TLR7, SEAP reporter, gardiquimod 7.5 μM; read-out: TLR7 IC50
T1 construct: host or cells: HEK-Blue cells
T1 sequence (Q9NYK1 27-1049): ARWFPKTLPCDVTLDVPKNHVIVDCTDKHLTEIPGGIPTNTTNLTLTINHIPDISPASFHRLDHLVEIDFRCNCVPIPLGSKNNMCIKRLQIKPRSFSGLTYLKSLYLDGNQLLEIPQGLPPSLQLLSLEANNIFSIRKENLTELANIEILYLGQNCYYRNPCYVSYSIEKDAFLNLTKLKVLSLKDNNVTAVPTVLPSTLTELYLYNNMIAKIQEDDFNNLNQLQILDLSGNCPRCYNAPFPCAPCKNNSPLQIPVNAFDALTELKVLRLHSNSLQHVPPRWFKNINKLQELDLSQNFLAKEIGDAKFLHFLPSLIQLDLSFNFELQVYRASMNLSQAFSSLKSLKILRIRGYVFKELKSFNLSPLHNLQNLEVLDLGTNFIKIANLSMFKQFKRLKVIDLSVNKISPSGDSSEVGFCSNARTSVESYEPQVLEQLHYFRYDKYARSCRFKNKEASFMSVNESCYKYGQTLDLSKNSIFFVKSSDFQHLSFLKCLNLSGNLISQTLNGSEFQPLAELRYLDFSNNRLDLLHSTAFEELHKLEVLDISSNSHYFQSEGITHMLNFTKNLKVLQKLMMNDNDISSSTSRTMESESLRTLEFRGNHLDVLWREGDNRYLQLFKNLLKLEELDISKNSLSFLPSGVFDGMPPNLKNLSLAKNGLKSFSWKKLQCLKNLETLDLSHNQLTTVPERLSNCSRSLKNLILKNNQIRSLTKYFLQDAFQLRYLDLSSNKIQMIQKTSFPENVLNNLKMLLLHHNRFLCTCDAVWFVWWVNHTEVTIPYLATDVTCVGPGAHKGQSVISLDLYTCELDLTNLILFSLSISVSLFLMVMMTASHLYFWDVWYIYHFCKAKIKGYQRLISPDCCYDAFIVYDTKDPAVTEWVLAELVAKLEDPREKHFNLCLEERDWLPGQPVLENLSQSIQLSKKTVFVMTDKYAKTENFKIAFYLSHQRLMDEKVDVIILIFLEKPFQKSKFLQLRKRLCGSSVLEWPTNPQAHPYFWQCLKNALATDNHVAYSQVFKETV
Procedure, shortened: (§1)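 HEK-Blue cells overexpressing human TLR7, TLR8 or TLR9 carry a SEAP reporter driven by NF-κB/AP-1 sites. Compounds (0.05 nM–50 μM) were preincubated 30 min at room temperature, then cells were stimulated with gardiquimod 7.5 μM (TLR7), R848 15.9 μM (TLR8) or ODN2006 5 nM (TLR9) for 22 h at 37 °C.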

[2] = biological target: T2, human TLR9 (Homo sapiens, UniProt Q9NR96); experiment: TLR9 inhibition reporter assay (HEK-Blue cells, SEAP reporter, ODN2006 stimulation); conditions: HEK-Blue cells overexpressing human TLR9, SEAP reporter, ODN2006 5 nM
T2 construct: host or cells: HEK-Blue cells
T2 sequence (Q9NR96 26-1032): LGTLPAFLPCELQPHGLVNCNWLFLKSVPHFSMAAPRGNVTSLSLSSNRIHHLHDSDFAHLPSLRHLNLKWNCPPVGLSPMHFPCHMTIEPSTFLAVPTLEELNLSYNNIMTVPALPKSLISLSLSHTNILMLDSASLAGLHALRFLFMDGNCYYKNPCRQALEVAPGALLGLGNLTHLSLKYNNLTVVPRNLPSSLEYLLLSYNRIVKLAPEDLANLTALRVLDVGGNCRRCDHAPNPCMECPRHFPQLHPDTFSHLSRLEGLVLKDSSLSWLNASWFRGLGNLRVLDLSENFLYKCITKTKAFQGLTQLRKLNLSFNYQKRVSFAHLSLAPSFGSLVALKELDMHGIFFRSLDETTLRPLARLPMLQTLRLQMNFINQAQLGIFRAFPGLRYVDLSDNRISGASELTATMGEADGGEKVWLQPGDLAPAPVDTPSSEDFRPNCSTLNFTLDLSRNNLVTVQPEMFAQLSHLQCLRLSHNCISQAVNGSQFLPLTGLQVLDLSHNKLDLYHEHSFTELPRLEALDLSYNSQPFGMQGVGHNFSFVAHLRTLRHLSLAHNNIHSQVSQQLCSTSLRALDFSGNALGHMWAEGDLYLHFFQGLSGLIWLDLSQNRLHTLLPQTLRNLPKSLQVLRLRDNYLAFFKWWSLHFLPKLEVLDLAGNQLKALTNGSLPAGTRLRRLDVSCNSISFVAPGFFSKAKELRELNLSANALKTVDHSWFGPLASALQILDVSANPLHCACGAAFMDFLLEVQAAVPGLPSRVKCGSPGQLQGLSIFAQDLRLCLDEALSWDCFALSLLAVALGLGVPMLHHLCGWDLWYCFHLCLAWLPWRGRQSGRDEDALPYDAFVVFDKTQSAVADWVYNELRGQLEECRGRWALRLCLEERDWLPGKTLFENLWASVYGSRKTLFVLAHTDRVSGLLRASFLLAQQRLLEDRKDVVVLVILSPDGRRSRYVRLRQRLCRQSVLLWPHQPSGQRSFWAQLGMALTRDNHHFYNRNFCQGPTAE
Procedure, shortened: as §1

[3] = biological target: T3, human TLR8 (Homo sapiens, UniProt Q9NR97); experiment: TLR8 inhibition reporter assay (HEK-Blue cells, SEAP reporter, R848 stimulation); conditions: HEK-Blue cells overexpressing human TLR8, SEAP reporter, R848 15.9 μM; read-out: TLR8 IC50
T3 construct: host or cells: HEK-Blue cells
T3 sequence (Q9NR97 27-1041): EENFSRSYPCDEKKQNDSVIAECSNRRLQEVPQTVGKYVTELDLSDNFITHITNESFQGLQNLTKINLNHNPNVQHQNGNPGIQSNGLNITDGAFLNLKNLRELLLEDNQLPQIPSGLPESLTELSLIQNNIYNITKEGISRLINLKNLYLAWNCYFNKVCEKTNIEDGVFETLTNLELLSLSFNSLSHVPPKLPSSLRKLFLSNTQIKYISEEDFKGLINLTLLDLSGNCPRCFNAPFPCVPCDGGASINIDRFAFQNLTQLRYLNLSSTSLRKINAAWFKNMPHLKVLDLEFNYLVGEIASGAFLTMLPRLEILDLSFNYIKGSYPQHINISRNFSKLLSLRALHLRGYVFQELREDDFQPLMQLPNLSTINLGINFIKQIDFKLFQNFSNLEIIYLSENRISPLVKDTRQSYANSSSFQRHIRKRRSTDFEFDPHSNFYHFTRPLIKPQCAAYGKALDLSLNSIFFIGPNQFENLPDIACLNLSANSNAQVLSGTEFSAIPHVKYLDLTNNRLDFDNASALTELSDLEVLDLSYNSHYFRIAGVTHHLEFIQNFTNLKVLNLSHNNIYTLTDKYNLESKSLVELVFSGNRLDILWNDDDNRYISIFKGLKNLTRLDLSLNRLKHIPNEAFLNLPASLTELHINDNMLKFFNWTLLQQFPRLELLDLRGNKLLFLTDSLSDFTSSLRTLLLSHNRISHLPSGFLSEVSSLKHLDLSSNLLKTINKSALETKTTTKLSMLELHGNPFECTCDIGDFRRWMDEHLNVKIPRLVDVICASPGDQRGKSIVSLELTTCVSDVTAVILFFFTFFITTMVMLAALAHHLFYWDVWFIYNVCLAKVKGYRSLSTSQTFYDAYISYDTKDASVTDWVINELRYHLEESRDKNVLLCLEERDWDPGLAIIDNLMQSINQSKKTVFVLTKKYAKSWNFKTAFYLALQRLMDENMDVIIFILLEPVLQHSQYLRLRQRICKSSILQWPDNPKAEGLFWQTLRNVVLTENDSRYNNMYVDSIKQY
Procedure, shortened: as §1

| Compound | IC50 [1] [nM] | IC50 [2] [nM] | IC50 [3] [nM] |
| --- | --- | --- | --- |
| Cc1c(-c2[nH]c3sc(C4CCC(N5CC(O)C5)CC4)nc3c2C(C)C)cn(C)c(=O)c1C (single isomer, unassigned) [Example 263, 5-(2-(4-(3-hydroxyazetidin-1-yl)cyclohexyl)-6-isopropyl-4H-pyrrolo[3,2-d]thiazol-5-yl)-1,3,4-trimethylpyridin-2(1H)-one] | 4.74 | 18100 | 4.48 |
| Cc1c(-c2[nH]c3sc(C4CCC(N5CC(O)C5)CC4)nc3c2C(C)C)cn(C)c(=O)c1C (single isomer, unassigned) [Example 264, 5-(2-(4-(3-hydroxyazetidin-1-yl)cyclohexyl)-6-isopropyl-4H-pyrrolo[3,2-d]thiazol-5-yl)-1,3,4-trimethylpyridin-2(1H)-one] | 26.8 | 22000 | 22.9 |
| Cc1c(-c2[nH]c3sc(C4CCC(N5CC(F)C5)CC4)nc3c2C(C)C)cn(C)c(=O)c1C (single isomer, unassigned) [Example 265, 5-(2-(4-(3-fluoroazetidin-1-yl)cyclohexyl)-6-isopropyl-4H-pyrrolo[3,2-d]thiazol-5-yl)-1,3,4-trimethylpyridin-2(1H)-one] | 14 | 47700 | 3.29 |
| Cc1c(-c2[nH]c3sc(C4CCC(N5CC(F)C5)CC4)nc3c2C(C)C)cn(C)c(=O)c1C (single isomer, unassigned) [Example 266, 5-(2-(4-(3-fluoroazetidin-1-yl)cyclohexyl)-6-isopropyl-4H-pyrrolo[3,2-d]thiazol-5-yl)-1,3,4-trimethylpyridin-2(1H)-one] | 119 | > 50000 | 60.2 |
| Cc1c(-c2[nH]c3sc(C4CCC(N5CC(O)(C(F)(F)F)C5)CC4)nc3c2C(C)C)cn(C)c(=O)c1C (single isomer, unassigned) [Example 267, 5-(2-(4-(3-hydroxy-3-(trifluoromethyl)azetidin-1-yl)cyclohexyl)-6-isopropyl-4H-pyrrolo[3,2-d]thiazol-5-yl)-1,3,4-trimethylpyridin-2(1H)-one] | 24.3 | > 50000 | 7.16 |
| Cc1c(-c2[nH]c3sc(C4CCC(N5CC(O)(C(F)(F)F)C5)CC4)nc3c2C(C)C)cn(C)c(=O)c1C (single isomer, unassigned) [Example 268, 5-(2-(4-(3-hydroxy-3-(trifluoromethyl)azetidin-1-yl)cyclohexyl)-6-isopropyl-4H-pyrrolo[3,2-d]thiazol-5-yl)-1,3,4-trimethylpyridin-2(1H)-one] | 41.1 | > 50000 | 65.1 |
| CCc1c(-c2cc(OC)c3ncnn3c2)[nH]c2sc(C3CCC(N4CC5(COC5)C4)CC3)nc12 (single isomer, unassigned) [Example 269, 6-(4-(6-ethyl-5-(8-methoxy-[1,2,4]triazolo[1,5-a]pyridin-6-yl)-4H-pyrrolo[3,2-d]thiazol-2-yl)cyclohexyl)-2-oxa-6-azaspiro[3.3]heptane] | 4.31 | 6280 | 2.55 |
| CCc1c(-c2cc(OC)c3ncnn3c2)[nH]c2sc(C3CCC(N4CC5(COC5)C4)CC3)nc12 (single isomer, unassigned) [Example 270, 6-(4-(6-ethyl-5-(8-methoxy-[1,2,4]triazolo[1,5-a]pyridin-6-yl)-4H-pyrrolo[3,2-d]thiazol-2-yl)cyclohexyl)-2-oxa-6-azaspiro[3.3]heptane] | 8.99 | 3460 | 14 |

Further lines, results first:

| IC50 [1] [nM] | IC50 [2] [nM] | IC50 [3] [nM] | Compound |
| --- | --- | --- | --- |
| 0.96 | 4560 | 1.94 | CCc1c(-c2cc(OC)c3ncnn3c2)[nH]c2sc(C3CCC(NC4COC4)CC3)nc12 (single isomer, unassigned) [Example 271, N-(4-(6-ethyl-5-(8-methoxy-[1,2,4]triazolo[1,5-a]pyridin-6-yl)-4H-pyrrolo[3,2-d]thiazol-2-yl)cyclohexyl) oxetan-3-amine] |
| 137 | > 50000 | 122 | CCc1c(-c2cc(OC)c3ncnn3c2)[nH]c2sc(C3CCC(NC4COC4)CC3)nc12 (single isomer, unassigned) [Example 272, N-(4-(6-ethyl-5-(8-methoxy-[1,2,4]triazolo[1,5-a]pyridin-6-yl)-4H-pyrrolo[3,2-d]thiazol-2-yl)cyclohexyl) oxetan-3-amine] |
| 13.7 | 5550 | 26.5 | COc1cc(-c2[nH]c3sc(C4CCC(NC5COC5)CC4)nc3c2C)cn2ncnc12 (single isomer, unassigned) [Example 273, N-(4-(5-(8-methoxy-[1,2,4]triazolo[1,5-a]pyridin-6-yl)-6-methyl-4H-pyrrolo[3,2-d]thiazol-2-yl)cyclohexyl)oxetan-3-amine] |
| 413 | > 50000 | 515 | COc1cc(-c2[nH]c3sc(C4CCC(N5CCNC(=O)C5)CC4)nc3c2C)cn2ncnc12 (single isomer, unassigned) [Example 275, 4-(4-(5-(8-methoxy-[1,2,4]triazolo[1,5-a]pyridin-6-yl)-6-methyl-4H-pyrrolo[3,2-d]thiazol-2-yl)cyclohexyl)piperazin-2-one] |
